{"source": "ChEMBL document CHEMBL3400083", "about": "“Effect of the tyrosinase inhibitor (S)-N-trans-feruloyloctopamine from garlic skin on tyrosinase gene expression and melanine accumulation in melanoma cells” (Bioorg Med Chem Lett, 2015)", "key": {"[1]": {"experiment": "Cytotoxicity against mouse B16F10 cells assessed as cell viability at 1.5 uM after 72 hrs by MTT assay (reference value: 99.6 +/- 3.5%)", "type": "cell-based, B16-F10", "details": "read-out: Activity"}, "[2]": {"experiment": "Cytotoxicity against mouse B16F10 cells assessed as cell viability at 3 uM after 72 hrs by MTT assay (reference value: 99.6 +/- 3.5%)", "type": "cell-based, B16-F10", "details": "read-out: Activity"}, "[3]": {"experiment": "Cytotoxicity against mouse B16F10 cells assessed as cell viability at 6 uM after 72 hrs by MTT assay (reference value: 99.6 +/- 3.5%)", "type": "cell-based, B16-F10", "details": "read-out: Activity"}, "[4]": {"experiment": "Cytotoxicity against mouse B16F10 cells assessed as cell viability at 12 uM after 72 hrs by MTT assay (reference value: 99.6 +/- 3.5%)", "type": "cell-based, B16-F10", "details": "read-out: Activity"}, "[5]": {"experiment": "Cytotoxicity against mouse B16F10 cells assessed as cell viability at 24 uM after 72 hrs by MTT assay (reference value: 99.6 +/- 3.5%)", "type": "cell-based, B16-F10", "details": "read-out: Activity"}, "[6]": {"experiment": "Cytotoxicity against mouse B16F10 cells assessed as cell viability at 48 uM after 72 hrs by MTT assay (reference value: 99.6 +/- 3.5%)", "type": "cell-based, B16-F10", "details": "read-out: Activity"}, "[7]": {"experiment": "Cytotoxicity against mouse B16F10 cells assessed as cell viability at 96 uM after 72 hrs by MTT assay (reference value: 99.6 +/- 3.5%)", "type": "cell-based, B16-F10", "details": "read-out: Activity"}, "[8]": {"target": "T1, Tyrosinase (Mus musculus) (UniProt P11344)", "T1 sequence (whole entry)": "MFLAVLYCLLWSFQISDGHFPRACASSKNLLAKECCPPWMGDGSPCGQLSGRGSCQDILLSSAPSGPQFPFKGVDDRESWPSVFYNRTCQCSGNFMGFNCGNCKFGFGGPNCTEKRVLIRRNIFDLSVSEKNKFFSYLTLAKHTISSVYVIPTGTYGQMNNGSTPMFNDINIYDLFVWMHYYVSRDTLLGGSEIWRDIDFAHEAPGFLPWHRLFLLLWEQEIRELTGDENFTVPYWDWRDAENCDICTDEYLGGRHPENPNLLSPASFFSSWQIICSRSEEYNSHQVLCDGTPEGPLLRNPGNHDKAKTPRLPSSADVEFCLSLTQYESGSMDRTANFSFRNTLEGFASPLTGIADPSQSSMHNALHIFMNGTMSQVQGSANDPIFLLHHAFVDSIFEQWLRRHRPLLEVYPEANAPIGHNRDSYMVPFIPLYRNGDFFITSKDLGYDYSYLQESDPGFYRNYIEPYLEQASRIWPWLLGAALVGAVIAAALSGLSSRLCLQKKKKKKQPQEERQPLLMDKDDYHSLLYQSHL", "experiment": "Inhibition of tyrosinase in mouse B16F10 cells assessed as reduction in alpha-MSH-induced melanin content at 48 uM (reference value: 98.5 +/- 4.7%)", "type": "cell-based", "details": "B16-F10"}, "[9]": {"target": "T1, Tyrosinase (Mus musculus)", "experiment": "Inhibition of tyrosinase in mouse B16F10 cells assessed as reduction in alpha-MSH-induced melanin content at 96 uM (reference value: 98.5 +/- 4.7%)", "type": "cell-based", "details": "B16-F10"}, "[10]": {"target": "T1, Tyrosinase (Mus musculus)", "experiment": "(§1) Inhibition of tyrosinase in mouse B16F10 cells assessed as reduction in alpha-MSH-induced melanin content", "type": "cell-based", "details": "B16-F10"}, "Tyrosinase [11]": {"target": "T2, Tyrosinase (Mus musculus, UniProt P11344)", "T2 sequence (P11344 whole entry)": "T1 sequence (whole entry)", "experiment": "as §1", "type": "cell-based, B16-F10"}, "B16-F10": {"tested_on": "B16-F10", "experiment": "Inhibition of tyrosinase mRNA expression in alpha-MSH-stimulated mouse B16F10 cells at 48 to 96 uM incubated for 1 hr prior to alpha-MSH challenge measured after 24 hrs by RT-PCR analysis", "type": "functional, cell-based"}, "[12]": {"experiment": "Inhibition of tyrosinase protein expression in alpha-MSH-stimulated mouse B16F10 cells at 48 to 96 uM incubated for 1 hr prior to alpha-MSH challenge measured after 24 hrs by Western blotting analysis", "type": "functional, cell-based", "details": "B16-F10"}, "[13]": {"target": "T1, Tyrosinase (Mus musculus)", "details": "B16-F10, 100 uM", "description": "Inhibition of tyrosinase in mouse B16F10 cells assessed as reduction in alpha-MSH-induced melanin content at 100 uM"}, "Tyrosinase [14]": {"target": "T3, Tyrosinase (Homo sapiens, UniProt P14679)", "T3 sequence (P14679 whole entry)": "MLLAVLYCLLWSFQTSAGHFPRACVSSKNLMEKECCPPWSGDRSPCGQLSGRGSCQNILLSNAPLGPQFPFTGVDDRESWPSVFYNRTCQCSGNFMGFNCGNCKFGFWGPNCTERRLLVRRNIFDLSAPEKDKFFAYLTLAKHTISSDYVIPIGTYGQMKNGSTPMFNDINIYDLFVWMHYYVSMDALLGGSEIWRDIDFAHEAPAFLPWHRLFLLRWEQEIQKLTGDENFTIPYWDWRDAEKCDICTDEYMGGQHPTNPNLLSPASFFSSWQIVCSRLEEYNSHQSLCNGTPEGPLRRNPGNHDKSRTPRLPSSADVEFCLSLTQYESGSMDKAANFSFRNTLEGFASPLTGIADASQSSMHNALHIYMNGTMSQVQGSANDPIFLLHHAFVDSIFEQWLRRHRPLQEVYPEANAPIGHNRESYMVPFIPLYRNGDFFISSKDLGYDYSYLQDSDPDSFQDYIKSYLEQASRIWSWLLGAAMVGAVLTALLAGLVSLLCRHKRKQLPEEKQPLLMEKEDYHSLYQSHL", "experiment": "Inhibition of tyrosinase (unknown origin)"}}, "note": "Active and inactive are the calls of the source. The calls are words filed in the database; no cut-off is given here."}
{"smiles": "COc1cc(/C=C/C(=O)NC[C@@H](O)c2ccc(O)cc2)ccc1O", "values": [{"measurement": "viability at 72 h, 1.5 µM", "setting": "[1]", "result": 102, "unit": "%"}, {"measurement": "viability at 72 h, 3 µM", "setting": "[2]", "result": 105, "unit": "%"}, {"measurement": "viability at 72 h, 6 µM", "setting": "[3]", "result": 97.8, "unit": "%"}, {"measurement": "viability at 72 h, 12 µM", "setting": "[4]", "result": 99.4, "unit": "%"}, {"measurement": "viability at 72 h, 24 µM", "setting": "[5]", "result": 98.3, "unit": "%"}, {"measurement": "viability at 72 h, 48 µM", "setting": "[6]", "result": 97.2, "unit": "%"}, {"measurement": "viability at 72 h, 96 µM", "setting": "[7]", "result": 96, "unit": "%"}, {"measurement": "inhibition", "setting": "[8]", "result": 122, "unit": "%"}, {"measurement": "inhibition", "setting": "[9]", "result": 106, "unit": "%"}, {"measurement": "inhibition", "setting": "[10]", "result": "Dose-dependent effect"}, {"measurement": "IC50", "setting": "Tyrosinase [11]", "result": "> 96", "unit": "µM"}, {"measurement": "inhibition", "setting": "B16-F10", "result": "Active"}, {"measurement": "inhibition", "setting": "[12]", "result": "Active"}]}
{"smiles": "OC[C@H]1O[C@@H](Oc2ccc(O)cc2)[C@H](O)[C@@H](O)[C@@H]1O", "values": [{"measurement": "inhibition", "setting": "[13]", "result": 146, "unit": "%"}]}
{"smiles": "CC(C)(C)c1cc(O)ccc1O", "note": "[E319]", "values": [{"measurement": "IC50", "setting": "Tyrosinase [14]", "result": 54.2, "unit": "µM"}]}
